Assay results as given in US5663335A, “Immunosuppressive compounds and methods” (priority 1996, dated 1997).
Read-outs that look alike come from different tables or passages of the source.

Tests used:
[1] = system: murine thymocytes (IL-1β action); assay: Inhibition of IL-1 action: suppression of IL-1β + PHA stimulated thymocyte proliferation ((3H)-thymidine incorporation); type: cell-based, mouse (C3H/HeN); details: IL-1β 0.08 ng/ml + PHA 10 μg/ml
Procedure: The ability of the above compounds to suppress the cell-proliferative effect of IL-1β (O'Gara, 1990) was examined as described in Example 11. Mouse thymocytes in culture were stimulated with IL-1β in the presence of phytohemagglutinin (PHA) and increasing concentrations of triptolide (control) and triptolide derivatives. The cells were cultured for 72 hours, and during the last 18 hours, incubated with tritiated thymidine. DNA synthesis was assessed by measuring incorporation of radiolabeled thymidine. The results expressed in terms of IC50 (concentration effective to cause 50% suppression of proliferation) are shown in Table I.
Inhibition of IL-1 Action on Murine Thymocytes
C3H/HeN mouse thymocytes were prepared and the action of IL-1 together with PHA, which stimulate proliferation of thymocyte, was measured using standard techniques (O'Gara, 1990; Mishell, 1980). Three- to six-week old C3H/HeN male mice (Simonson Laboratory, Gilroy, Calif.) were sacrificed by CO2 inhalation. Thymi were removed, separated from adherent non-thymic tissue, homogenized in Hank's balanced salt solution (HBSS, Gibco) using a glass homogenizer, and centrifuged at 200×g for 10 minutes at 15° C. Following an additional wash in HBSS, the thymocytes were resuspended in RPMI 1640 medium containing 50 uM 2-mercaptoethanol, 2 mM glutamine, 1 mM sodium pyruvate, non-essential amino acids 100 U/ml penicillin, 100 μg/ml streptomycin, and 10% heat-inactivated fetal bovine serum.
Cells were cultured in round-bottom 96 well microtiter tissue culture plates, 6×10^5 cells per well, in a volume of 100 μl. Recombinant human IL-1β(R & D Systems #201-LB) together with Phytohemagglutinin P (PHA, Pharmacia) were added to the cells in volume of 25 μl per well to achieve a final concentration of 0.08 ng/ml and 10 μg/ml, respectively. Samples were dissolved in DMSO (10 mg/ml), then diluted in culture medium. […]
Plates were incubated at 37° C. in a 5% CO2 incubator for 72 hours. […] Cells were then harvested and counted. […]

[2] = Stability in blood serum (TLC); type: in vitro ADME; details: rat serum, 37° C
Procedure: The stability of triptolide succinate in blood serum was determined as detailed in Example 10B. In this study, a solution of triptolide succinate (YM-262, free acid) in DMSO was mixed with rat serum and incubated at 37° C. The mixture was assayed periodically by thin layer chromatography (TLC) to follow the hydrolysis of the triptolide succinate over time.
A solution of triptolide succinate (free acid; YM-262) in DMSO was made at a concentration of 25 mg/ml, and 0.1 ml of this solution was mixed with 0.5 ml of rat serum. The mixture was incubated at 37° C. Aliquots of the mixture were taken at 1, 3, 5, 15, 45 minutes and 18 hours and analyzed by thin layer chromatography (TLC). The TLC plates were developed in 1:5 CH2 CI2 /Et2 O. After development, the plates were treated with iodine vapor and examined under a UV lamp. Triptolide and triptolide succinate were used as reference compounds (Rf =0.60), and 0.45, respectively).

## CC(C)[C@]12O[C@H]1[C@@H]1O[C@]13[C@]1(O[C@H]1C[C@H]1C4=C(CC[C@@]13C)C(=O)OC4)[C@@H]2O [Triptolide, triptolide]
[1]; 72 hours, read-out: IC50, IL-1 assay
  IC50: ~5 nM
[1]; Mus musculus, Thymocyte, 72 h, read-out: IC50 (concentration effective to cause 50% suppression of proliferation), IL-1 assay
  IC50: 1.9 ng/mL
[1]; Mus musculus, Thymocyte, 72 h, read-out: IC50, IL-1 assay
  IC50: 5.3 nM
[2]; 15 minutes
  triptolide spot, 15 minutes (formed from triptolide succinate): a new spot corresponding to triptolide had appeared
[2]; 45 minutes
  triptolide spot, 45 minutes (formed from triptolide succinate): the triptolide spot had also disappeared
